Among the data in US4530903A, “L-2-hydroxy-4-methylpentanoic acid-dehydrogenase, process for obtaining it and its use” (Degussa Aktiengelleschaft, priority 1982, dated 1985) are relative activity, Km and Vmax values, retold here.

Data set [1] deals with T1, L-2-hydroxy-4-methylpentanoic acid-dehydrogenase (Weissella confusa, UniProt P14295).
T1 construct: the cells harvesting by centrifugation, solubilizing the product in a suspension buffered to pH 7 and obtaining the enzyme from the extract; made in house; host or cells: Lactobacillus confusus DSM 20196 (natural producer, not recombinant)
T1 sequence (P14295 1-310): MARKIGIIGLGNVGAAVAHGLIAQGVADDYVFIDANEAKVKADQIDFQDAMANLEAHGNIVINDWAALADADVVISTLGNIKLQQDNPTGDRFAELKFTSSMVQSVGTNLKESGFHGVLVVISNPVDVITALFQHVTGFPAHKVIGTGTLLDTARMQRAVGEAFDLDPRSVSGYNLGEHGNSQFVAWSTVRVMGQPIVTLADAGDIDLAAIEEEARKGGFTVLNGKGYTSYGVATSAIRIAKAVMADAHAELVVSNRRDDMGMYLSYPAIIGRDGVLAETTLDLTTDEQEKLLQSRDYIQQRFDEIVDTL
In words: Reduction of 2-ketocarboxylic acids to L-2-hydroxycarboxylic acids (Example 2), NADH decrease at 340 nm. The data set is classed as biochemical, Lactobacillus confusus. As to conditions: same enzyme solution. The protocol: (§1) In each case, there was again measured the maximal beginning reaction velocity Vmax and the KM value. […] In a corresponding manner there was determined the enzyme activity against other 2-ketocarboxylic acids. The keto acid concentration in each case was varied in the range of 0.01 to a maximum of 10 millimoles. The maximal initial reaction velocity was ascertained through the increase of the substrate concentration. The Michaelis constant (KM value) corresponds to the substrate concentration in moles/liter at which the reaction velocity V is half the maximum initial reaction velocity. The kinetic constants Vmax and KM were ascertained through nonlinear regression of the Michaelis-[…] equation and are summarized in following Table 4. The relative activities (U/ml) stated in Table 5 were measured at substrate final concentrations of 0.1 millimoles, 1 millimole, and 10 millimoles. In all cases, there was employed the same enzyme solution. At 10 millimoles in all substrates there was already noticeable a substrate excess inhibition.

Data set [2] deals with T1, L-2-hydroxy-4-methylpentanoic acid-dehydrogenase. In words: Dehydrogenation of 2-hydroxycarboxylic acids to 2-ketocarboxylic acids (Example 1), NADH formation at 340 nm. The data set is classed as biochemical, Lactobacillus confusus. The conditions noted are these: same enzyme solution. The protocol: (§2) In each case, there was measured the maximal initial reaction velocity Vmax and the KM value. […] In a corresponding manner, the enzymatic activity against other 2-hydroxycarboxylic acids was determined. The concentration of the corresponding 2-hydroxycarboxylic acids in the test was varied between 0.2 and a maximum of 100 millimoles. By increasing the substrate concentration, the maximum beginning reaction velocity Vmax was ascertained. The Michaelis constant (KM value) corresponds to the substrate concentration in moles/liter, at which the reaction velocity V amounts to half the maximum initial reaction velocity. The kinetic constants Vmax and KM were ascertained through non-linear regression of the Michaelis-[…] and are collected in Table 2. […] The relative activities (U/ml) set forth in Table 3 were measured at substrate-final concentrations of 1 millimole, 10 millimoles, and 100 millimoles. In all cases, there was employed the same enzyme solution.

Substrate in data set [3]: NC(=O)C1=CN([C@@H]2O[C@H](COP(=O)(O)OP(=O)(O)OC[C@H]3O[C@@H](n4cnc5c(N)ncnc54)[C@H](O)[C@@H]3O)[C@@H](O)[C@H]2O)C=CC1
The experiment in a line: purified protein, by the assay type. The conditions noted are these: other: pH 7.0, 0.79 millimole 2-keto-4-methylpentanoic acid, NADH 0.01 to 0.33 millimoles.

Substrate in data set [4]: CC(C)CC(O)C(=O)O
The experiment in a line: purified protein, by the assay type. The data set is classed as biochemical, Lactobacillus confusus. The conditions noted are these: other: dehydrogenation, pH 8.0, 3 mmoles NAD+, with the enantiomer mixture based on the total concentration. The procedure:
as §2

Substrate in data set [5]: CSCCC(O)C(=O)O
The experiment in a line: purified protein, by the assay type. It counts as biochemical, Lactobacillus confusus. As to conditions: other: dehydrogenation, pH 8.0, 3 mmoles NAD+, with the enantiomer mixture based on the total concentration. The procedure:
as §2

Substrate in data set [6]: CCCCC(O)C(=O)O
In words: purified protein, by the assay type. It counts as biochemical, Lactobacillus confusus. The conditions noted are these: other: dehydrogenation, pH 8.0, 3 mmoles NAD+, with the enantiomer mixture based on the total concentration. The protocol: as §2

Substrate in data set [7]: CCCC(O)C(=O)O
The experiment in a line: purified protein, by the assay type. It counts as biochemical, Lactobacillus confusus. The conditions noted are these: other: dehydrogenation, pH 8.0, 3 mmoles NAD+, with the enantiomer mixture based on the total concentration. The procedure: as §2

Substrate in data set [8]: CC(C)C[C@H](O)C(=O)O
In words: purified protein, by the assay type. The data set is classed as biochemical, Lactobacillus confusus. As to conditions: other: dehydrogenation, pH 8.0, 3 mmoles NAD+, with the enantiomer mixture based on the total concentration. The procedure: as §2

Substrate in data set [9]: NC(=O)c1ccc[n+]([C@@H]2O[C@H](COP(=O)([O-])OP(=O)(O)OC[C@H]3O[C@@H](n4cnc5c(N)ncnc54)[C@H](O)[C@@H]3O)[C@@H](O)[C@H]2O)c1
The experiment in a line: Dependency of the dehydrogenation reaction velocity on the NAD+ concentration. The data set is classed as biochemical, Lactobacillus confusus. The conditions noted are these: other: pH 8.0, 6.3 millimoles L-2-hydroxy-4-methylpentanoic acid, NAD+ 0.05 to 7.0 millimoles. The text has this:
The dependency of the reaction velocity on the NAD^+ concentration was ascertained in a test mixture which contained 0.1 molar phosphate buffer for pH 8.0, 6.3 millimoles of L-2-hydroxy-4-methylpentanoic acid and limiting amounts of enzyme. The NAD^+ concentration was varied in the range of 0.05 to 7.0 millimoles.
The KM value for NAD^+ was ascertained by non-linear regression of the Michaelis-Menten equation and was 3.3×10^-4 moles.

Substrate in data set [10]: CCCCC(=O)C(=O)O
The experiment in a line: purified protein, by the assay type. The data set is classed as biochemical, Lactobacillus confusus. As to conditions: other: reduction, pH 7.0, 0.235 millimoles NADH. The protocol:
as §1

Substrate in data set [11]: CCCC(=O)C(=O)O
The experiment in a line: purified protein, by the assay type. The data set is classed as biochemical, Lactobacillus confusus. The conditions noted are these: other: reduction, pH 7.0, 0.235 millimoles NADH. The protocol:
as §1

Substrate in data set [12]: CSCCC(=O)C(=O)O
The experiment in a line: purified protein, by the assay type. The data set is classed as biochemical, Lactobacillus confusus. As to conditions: other: reduction, pH 7.0, 0.235 millimoles NADH. The protocol:
as §1

Substrate in data set [13]: CC(C)CC(=O)C(=O)O
In words: purified protein, by the assay type. The conditions noted are these: other: reduction, pH 7.0, 0.235 millimoles NADH. The data set is classed as biochemical, Lactobacillus confusus. The protocol: as §1

Setting [14] is: test concentration 0.1 mM substrate.
Where [15] appears, read: test concentration 1 mM substrate.
Setting [16] is: test concentration 10 mM substrate.
The mark [17] stands for this setting: test concentration 100 mM substrate.

What is called Vmax is the rate approached at saturating substrate.

`CCCCC(=O)C(=O)O` [2-Ketohexanoic acid]: the relative activity in [1] (setting [14]) is 123 U/ml; in [1] (setting [15]) it was 301 U/ml; in data set [1] (setting [16]), 103 U/ml.
`CCCC(O)C(=O)O` (racemic) [DL-2-Hydroxypentanoic acid]: the relative activity in [2] (setting [15]) is 6.2 U/ml; in [2] (setting [16]), 31.2 U/ml; in data set [2] (setting [17]), 5.3 U/ml.
As for `CCCCC(O)C(=O)O` (racemic) [DL-2-Hydroxyhexanoic acid], the relative activity in data set [2] (setting [15]) was determined as 8.4 U/ml; in [2] (setting [16]), 39.5 U/ml; in [2] (setting [17]), 3.9 U/ml.
In the case of `CCCC(=O)C(=O)O` [2-Ketopentanoic acid], the values for the relative activity in data set [1] (setting [14]), in data set [1] (setting [15]) and in [1] (setting [16]) were 149 U/ml, 344 U/ml and 161 U/ml, respectively.
With `CC(C)CC(O)C(=O)O` (racemic) [DL-2-Hydroxy-4-methylpentanoic acid], the relative activity was 16.6 U/ml in data set [2] (setting [15]), 39.8 U/ml in data set [2] (setting [16]) and 2.9 U/ml in data set [2] (setting [17]).
Take `CSCCC(O)C(=O)O` (racemic) [DL-2-Hydroxy-4-(methylmercapto)-butyric acid]: the relative activity is listed as 0.46 U/ml in data set [2] (setting [15]), 2.7 U/ml in [2] (setting [16]) and 5.1 U/ml in data set [2] (setting [17]).
In the case of `CC(C)CC(=O)C(=O)O` [2-Keto-4-methylpentanoic acid], the figures for the relative activity in data set [1] (setting [14]), in data set [1] (setting [15]) and in [1] (setting [16]) were 133 U/ml, 259 U/ml and 144 U/ml, respectively.
As to `CSCCC(=O)C(=O)O` [2-Keto-4-(methylmercapto)-butyric acid], the relative activity in [1] (setting [14]) came out at 33 U/ml; in data set [1] (setting [15]), 93 U/ml; in [1] (setting [16]), 53 U/ml.
On to `CC(C)C[C@H](O)C(=O)O` [L-2-Hydroxy-4-methylpentanoic acid], for which the relative activity in [2] (setting [15]) was found to be 28.4 U/ml; in data set [2] (setting [16]) it was 49.7 U/ml; in data set [2] (setting [17]), 5.0 U/ml.

B1: L-2-hydroxy-4-methylpentanoic acid-dehydrogenase (Weissella confusa) (protein)
chain: T1 sequence (P14295 1-310)
notes: the cells harvesting by centrifugation, solubilizing the product in a suspension buffered to pH 7 and obtaining the enzyme from the extract; made in house; host or cells: Lactobacillus confusus DSM 20196 (natural producer, not recombinant)
As to B1, the Km in data set [3] turned out to be 3.3e-05 mol; in [4], 1400 µM; in [5], 11000 µM; in [6], 4500 µM; in [7] it was 3550 µM; in [8] it was 620 µM. Moreover, the Km in data set [9] amounted to 330 µM; in data set [10] it was 120 µM; in data set [11], 250 µM; in [12] it was 210 µM; in data set [13], 70 µM. Besides, the Vmax worked out at 9.6 µmol/min/mg in data set [4]; 1.2 µmol/min/mg in data set [5]; 9.8 µmol/min/mg in data set [8]; 28 µmol/min/mg in data set [12]; 64 µmol/min/mg in data set [13].
